“And” between values parts separate entries of the source, which are not always exact repeats. Equal values may be shown once.
Conditions: Closed cell (Static) method

C=CC(C)(O)CCC=C(C)C (stereo not drawn) [3,7-dimethyl-1,6-octadien-3-ol]
Liquid
Conditions | vapor or sublimation pressure
284.62 K | 0.006422 kPa
286.91 K | 0.008001 kPa
289.26 K | 0.01007 kPa
291.61 K | 0.01262 kPa
294.02 K | 0.01583 kPa
296.39 K | 0.01969 kPa and 0.01967 kPa
298.77 K | 0.0242 kPa
301.14 K | 0.02977 kPa
301.2 K | 0.02999 kPa
303.59 K | 0.03677 kPa
305.95 K | 0.04473 kPa
305.99 K | 0.04494 kPa
308.38 K | 0.05475 kPa
310.74 K | 0.0661 kPa
310.78 K | 0.06649 kPa
313.18 K | 0.08076 kPa
316.23 K | 0.1024 kPa
321.01 K | 0.1464 kPa
325.83 K | 0.2062 kPa
330.68 K | 0.2877 kPa
335.48 K | 0.394 kPa
340.29 K | 0.5345 kPa
342.71 K | 0.6231 kPa
345.69 K | 0.7489 kPa
348.12 K | 0.8693 kPa
350.51 K | 0.9921 kPa
352.9 K | 1.136 kPa

O=C(O)c1ccccc1 [benzoic acid]
Crystal
Conditions | vapor or sublimation pressure [kPa]
297.67 K | 0.000108
299.96 K | 0.000142
300.03 K | 0.000143
302.51 K | 0.000193
304.75 K | 0.00025
307.27 K | 0.000335
309.63 K | 0.000436
312.08 K | 0.000573
314.4 K | 0.000738
314.59 K | 0.000754
316.91 K | 0.000969
319.48 K | 0.00127
321.91 K | 0.001641
324.39 K | 0.002118
326.76 K | 0.002676
329.2 K | 0.003432
331.62 K | 0.004361
334.07 K | 0.005542
336.46 K | 0.006934
338.98 K | 0.008733

[CH]1C=CC=C1.[CH]1C=CC=C1.[Fe] [ferrocene]
Crystal
Conditions | vapor or sublimation pressure [kPa]
280.91 K | 0.000154
282.03 K | 0.000176
283.33 K | 0.000202
284.44 K | 0.000229
285.74 K | 0.000264
286.87 K | 0.000298
288.14 K | 0.000344
289.31 K | 0.000388
290.59 K | 0.000447
291.71 K | 0.000501
293.03 K | 0.000576
294.12 K | 0.000646
295.42 K | 0.000741
296.52 K | 0.000829
297.8 K | 0.000942
297.83 K | 0.000947
300.23 K | 0.001197
300.35 K | 0.001218
302.84 K | 0.001542
304.06 K | 0.001742
304.13 K | 0.001753
305.54 K | 0.002007
307.9 K | 0.002499
311.31 K | 0.003428
312.99 K | 0.00399
315.35 K | 0.004949
316.48 K | 0.005493
317.93 K | 0.006236
319.06 K | 0.006868
320.29 K | 0.007672
320.95 K | 0.008091
321.69 K | 0.008661
322.63 K | 0.00937
324 K | 0.01056
325.29 K | 0.01176
325.31 K | 0.0117
327.79 K | 0.01447
330.22 K | 0.01764
331.21 K | 0.01908
332.72 K | 0.0215
335.15 K | 0.02616
336.4 K | 0.02867
337.89 K | 0.03234
340.33 K | 0.03875
341.35 K | 0.04176
342.83 K | 0.04685
345.27 K | 0.05631
346.28 K | 0.06042
347.77 K | 0.06739
350.23 K | 0.08052
351.2 K | 0.08649
352.7 K | 0.09579
355.17 K | 0.1142
357.88 K | 0.1377
360.37 K | 0.1622
362.8 K | 0.1914
365.3 K | 0.2244
367.75 K | 0.2639
370.2 K | 0.3093
372.93 K | 0.3682
375.4 K | 0.425
377.87 K | 0.4978
380.32 K | 0.5748
382.8 K | 0.6695
385.27 K | 0.7725
387.75 K | 0.8978
390.22 K | 1.03
392.69 K | 1.185

O=C(c1ccccc1)c1ccccc1 [benzophenone]
Conditions | vapor or sublimation pressure [kPa]
300.37 K, Crystal | 0.000119
302.88 K, Crystal | 0.000161
302.91 K, Liquid | 0.000237
305.39 K, Crystal | 0.00022
305.41 K, Liquid | 0.000306
307.9 K, Crystal | 0.000302
307.91 K, Liquid | 0.000394
310.26 K, Crystal | 0.000401
310.41 K, Liquid | 0.000503
312.75 K, Crystal | 0.000535
315.24 K, Crystal | 0.000708
317.73 K, Crystal | 0.000939
318.01 K, Liquid | 0.001028
320.23 K, Crystal | 0.001239
320.51 K, Liquid | 0.001288
323.09 K, Liquid | 0.001615
325.59 K, Liquid | 0.002005
328.11 K, Liquid | 0.002469
330.61 K, Liquid | 0.003064
333.13 K, Liquid | 0.003771
335.64 K, Liquid | 0.00461
338.16 K, Liquid | 0.005616
340.68 K, Liquid | 0.006814
343.21 K, Liquid | 0.008284
345.73 K, Liquid | 0.009949
348.24 K, Liquid | 0.01196
350.76 K, Liquid | 0.01435
353.28 K, Liquid | 0.01704
355.79 K, Liquid | 0.02035
358.31 K, Liquid | 0.02415
360.82 K, Liquid | 0.02859
363.34 K, Liquid | 0.03356
368.37 K, Liquid | 0.04652
370.89 K, Liquid | 0.0543

CCCCC(=O)CCCC [5-nonanone]
Liquid
Conditions | vapor or sublimation pressure [kPa]
283.83 K | 0.02528
283.85 K | 0.02535
286.19 K | 0.03083
288.55 K | 0.03722
290.9 K | 0.04494
293.32 K | 0.05439
293.35 K | 0.0544
295.75 K | 0.06539
298.1 K | 0.07793
298.12 K | 0.0783
300.56 K | 0.09349
302.92 K | 0.1107
302.94 K | 0.111
305.38 K | 0.1321
307.75 K | 0.1553
307.77 K | 0.1559
310.19 K | 0.1839
312.99 K | 0.2228
313.02 K | 0.2225
315 K | 0.2527
315.38 K | 0.2591
317.8 K | 0.3037
317.81 K | 0.3041
320.16 K | 0.3527
320.18 K | 0.3545
322.58 K | 0.4099
322.62 K | 0.4118
324.99 K | 0.476
325.05 K | 0.4746
327.44 K | 0.5474
327.49 K | 0.5494
329.9 K | 0.6318
329.95 K | 0.638
332.32 K | 0.7257
332.35 K | 0.7296
334.71 K | 0.8311
334.74 K | 0.8375
337.13 K | 0.9562
337.15 K | 0.9511

CC(=O)CCC=C(C)C [6-methyl-5-hepten-2-one]
Liquid
Conditions | vapor or sublimation pressure
283.85 K | 0.05465 kPa
283.86 K | 0.05482 kPa and 0.05462 kPa
283.92 K | 0.05498 kPa
286.18 K | 0.06551 kPa
286.23 K | 0.06608 kPa
286.24 K | 0.06599 kPa
288.57 K | 0.07931 kPa
288.59 K | 0.07922 kPa
288.61 K | 0.07945 kPa
288.69 K | 0.07994 kPa
290.97 K | 0.09477 kPa
291 K | 0.09535 kPa
291.02 K | 0.09517 kPa
293.47 K | 0.1142 kPa
293.49 K | 0.1148 kPa
295.81 K | 0.1358 kPa
295.85 K | 0.1362 kPa
295.88 K | 0.1365 kPa
298.28 K | 0.1619 kPa
298.31 K | 0.1623 kPa
300.61 K | 0.1903 kPa
300.65 K | 0.1915 kPa
300.69 K | 0.1919 kPa
303.12 K | 0.2264 kPa
303.15 K | 0.2273 kPa
305.45 K | 0.2654 kPa
305.48 K | 0.2664 kPa
305.54 K | 0.2673 kPa
307.99 K | 0.3137 kPa
308.02 K | 0.3147 kPa
310.3 K | 0.3637 kPa
310.36 K | 0.3668 kPa
310.42 K | 0.3665 kPa
312.88 K | 0.4306 kPa
312.9 K | 0.4306 kPa
315.16 K | 0.4939 kPa
315.23 K | 0.4983 kPa
315.28 K | 0.4979 kPa
317.72 K | 0.5789 kPa
317.75 K | 0.5801 kPa
320.01 K | 0.6665 kPa
320.07 K | 0.6684 kPa
320.13 K | 0.6684 kPa
322.5 K | 0.769 kPa
322.52 K | 0.7718 kPa
322.56 K | 0.7724 kPa
324.84 K | 0.8831 kPa
324.89 K | 0.8852 kPa
324.93 K | 0.8864 kPa
327.28 K | 1.015 kPa
327.32 K | 1.015 kPa
327.36 K | 1.016 kPa

c1ccc2ccccc2c1 [naphthalene]
Crystal
Conditions | vapor or sublimation pressure [kPa]
297.72 K | 0.01042
300.06 K | 0.0131
302.47 K | 0.01651
304.88 K | 0.02077
307.27 K | 0.02598
309.69 K | 0.03247
312.35 K | 0.04107
314.78 K | 0.05102
317.21 K | 0.06281
319.66 K | 0.0774
322.08 K | 0.0949
324.51 K | 0.1161
326.97 K | 0.1415

Source: the NIST ThermoML archive (doi:10.1016/j.fluid.2014.11.026)
